Tests used:
[1] = system: Triticum aestivum; experiment: Growth height of young cereal plants (Example 11, Table A); assay type: in vivo
Excerpt: (§1) The vessels used for the experiments were plastic pots having a volume of 1,130 cm^3 (Table A) or paraffined paper cups having a volume of 170 cm^3 (Table B). The pots and cups were filled with a sandy loam. The seeds of the test plants-separated by species-were sown shallow. Preemergence treatment (soil treatment) was effected immediately after sowing and before germination of the seeds. Seeds lying on the surface came into contact with the active ingredients. Postemergence treatment (leaf treatment) took place at an average growth height of the plants (depending on the rate of growth) of from 6 to 10 cm. The substances were suspended, emulsified or dissolved in water as diluent and applied by means of fine nozzles. The vessels were kept in the greenhouse in a temperature range of 12° C. to 25° C., and were regularly sprinkler irrigated for the duration of the experiment. The observation period was 6 to 8 weeks.

[2] = system: Hordeum vulgare; experiment: as above; assay type: in vivo; settings: soil treatment
Excerpt: as §1

[3] = system: soybeans; experiment: Soybeans in a vegetation experiment in sandy loam (Example 19); assay type: in vivo, soybean (Gieso variety); settings: for Growth height: soil, 4 weeks; for response vs control in vivo at 3000 g/ha / response vs control in vivo at 6000 g/ha: Glycine max, 672 h, control 100, read-out: Growth height relative
Protocol: Soybean plants of the Gieso variety were grown in a neutral sandy loam. Fertilization took place at the time of sowing, with 0.5 g N as ammonium nitrate and 1.0 g P2 O5 as secondary potassium phosphate. […]
After 4 weeks, the treated plants were much shorter than the control, and looked more compact as a result of the different angle of the leaves. The prior art compound used for comparison purposes was 2,3,5-triiodobenzoic acid (T; U.S. Pat. No. 2,978,838).

[4] = system: grass or lawns; experiment: Action on grass or lawns (Example 13); assay type: in vivo; settings: for First cutting, dry substance / First cutting, growth height: 19 days after treatment; for First cutting, dry substance relative / First cutting, growth height relative: control 100; for Observations (color): control normal green
Excerpt: Lawn seed of the standard mixture Agrostis tenius (10%), Cynosurus cristatus (10%), Festuca rubra (15%), Lolium perenne (35%) and Poa praetensis (30%) was sown in a loam in large pots. The soil was fertilized with 1.5 g N as ammonium nitrate and 1 g P2 O5 as secondary potassium phosphate. After the grass had been cut twice, it was sprayed in conventional manner at a height of 4 cm with the active ingredients at various application rates. 19 days after treatment the growth height and dry substance content were determined. The treated grass was much shorter than the control, and produced a correspondingly lower amount of dry substance.
The prior art compound used for comparison purposes was maleic hydrazide (M; German 815,192).

## Brc1cccc(N2N=NC3C4CC(C5N=NC45)C32)c1 (stereo not drawn) [drawing 366]
[1]; leaf treatment, 0.5 kg/ha
  Growth height: 33 cm
[1]; leaf treatment, 1.0 kg/ha
  Growth height: 28 cm
[1]; leaf treatment, 2.0 kg/ha
  Growth height: 17 cm
[1]; soil treatment, 0.5 kg/ha
  Growth height: 24 cm
[1]; soil treatment, 1.0 kg/ha
  Growth height: 20 cm
[1]; soil treatment, 2.0 kg/ha
  Growth height: 16 cm
[2]; 0.5 kg/ha
  Growth height: 38 cm
[2]; 1.0 kg/ha
  Growth height: 30 cm
[2]; 2.0 kg/ha
  Growth height: 27 cm

## Brc1ccccc1N1N=NC2C3CC(C4N=NC34)C21 (stereo not drawn) [drawing 365]
[1]; leaf treatment, 0.5 kg/ha
  Growth height: 35 cm
[1]; leaf treatment, 1.0 kg/ha
  Growth height: 33 cm
[1]; leaf treatment, 2.0 kg/ha
  Growth height: 33 cm
[1]; soil treatment, 0.5 kg/ha
  Growth height: 22 cm
[1]; soil treatment, 1.0 kg/ha
  Growth height: 12 cm
[1]; soil treatment, 2.0 kg/ha
  Growth height: 10 cm
[2]; 0.5 kg/ha
  Growth height: 40 cm
[2]; 1.0 kg/ha
  Growth height: 42 cm
[2]; 2.0 kg/ha
  Growth height: 31 cm

## Clc1ccc(CN2N=NC3C4CC(C5N=NC45)C32)cc1 (stereo not drawn)
[1]; leaf treatment, 0.5 kg/ha
  Growth height: 40 cm
[1]; leaf treatment, 1.0 kg/ha
  Growth height: 39 cm
[1]; leaf treatment, 2.0 kg/ha
  Growth height: 40 cm
[1]; soil treatment, 0.5 kg/ha
  Growth height: 40 cm
[1]; soil treatment, 1.0 kg/ha
  Growth height: 40 cm
[1]; soil treatment, 2.0 kg/ha
  Growth height: 30 cm
[2]; 0.5 kg/ha
  Growth height: 48 cm
[2]; 1.0 kg/ha
  Growth height: 44 cm
[2]; 2.0 kg/ha
  Growth height: 41 cm

## Brc1ccc(N2N=NC3C4CC(C5N=NC45)C32)cc1 (stereo not drawn) [drawing 397]
[3]; 3.0 kg/ha
  Growth height: 14.0 cm
  response vs control in vivo at 3000 g/ha: 60.9%
[3]; 6.0 kg/ha
  Growth height: 14.0 cm
  response vs control in vivo at 6000 g/ha: 60.9%

## Brc1cccc(N2N=NC3C4CC(C5N=NC45)C32)c1 (stereo not drawn) [drawing 399]
[3]; 3.0 kg/ha
  Growth height: 17.0 cm
  response vs control in vivo at 3000 g/ha: 73.9%
[3]; 6.0 kg/ha
  Growth height: 16.0 cm
  response vs control in vivo at 6000 g/ha: 69.6%

## Clc1ccc(N2N=NC3C4CC(C5N=NC45)C32)cc1 (stereo not drawn) [drawing 393]
[3]; 3.0 kg/ha
  Growth height: 15.0 cm
  response vs control in vivo at 3000 g/ha: 65.2%
[3]; 6.0 kg/ha
  Growth height: 14.0 cm
  response vs control in vivo at 6000 g/ha: 60.9%

## Clc1cccc(N2N=NC3C4CC(C5N=NC45)C32)c1 (stereo not drawn) [drawing 394]
[3]; 3.0 kg/ha
  Growth height: 17.5 cm
  response vs control in vivo at 3000 g/ha: 76.1%
[3]; 6.0 kg/ha
  Growth height: 14.5 cm
  response vs control in vivo at 6000 g/ha: 63%

## Clc1ccc(N2N=NC3C4CC(C5NNC45)C32)cc1 (stereo not drawn) [drawing 395]
[3]; 3.0 kg/ha
  Growth height: 13.5 cm
  response vs control in vivo at 3000 g/ha: 58.7%
[3]; 6.0 kg/ha
  Growth height: 12.5 cm
  response vs control in vivo at 6000 g/ha: 54.4%

## Clc1ccc(N2N=NC3C4CC(C5N=NC45)C32)cc1 (stereo not drawn) [drawing 378]
[4]; 0.25 kg/ha
  First cutting, dry substance: 10.7 g
  First cutting, growth height: 26.0 cm
  First cutting, dry substance relative: 85.6
  First cutting, growth height relative: 101.9
  Observations (color): normal green
[4]; 0.5 kg/ha
  First cutting, dry substance: 8.6 g
  First cutting, growth height: 24.0 cm
  First cutting, dry substance relative: 68.8
  First cutting, growth height relative: 94.1
  Observations (color): normal green
[4]; 1.0 kg/ha
  First cutting, dry substance: 7.0 g
  First cutting, growth height: 19.0 cm
  First cutting, dry substance relative: 56.0
  First cutting, growth height relative: 74.5
  Observations (color): normal green
[4]; 2.0 kg/ha
  First cutting, dry substance: 4.8 g
  First cutting, growth height: 16.0 cm
  First cutting, dry substance relative: 38.4
  First cutting, growth height relative: 62.7
  Observations (color): dark green
[4]; 4.0 kg/ha
  First cutting, dry substance: 3.1 g
  First cutting, growth height: 10.5 cm
  First cutting, dry substance relative: 24.8
  First cutting, growth height relative: 41.1
  Observations (color): dark green

Source: patent publication US4257941A, “Polycyclic nitrogen-containing compounds” (BASF Aktiengesellschaft, priority 1976, dated 1981)
